Results as given in patent US20110052534A1, “Imidazopyridazine Compounds for Treating Viral Infections” (priority 2009, published 2011).
Counter-ions that a name gives are not always drawn. Like-named read-outs stand apart in the source and are kept apart here.

Experiments:
[1] = tested on: HCV genotype 1b replicon (ET replicon); test: microbe, parasite or virus in culture; type: cell-based; details: Hepatitis C virus
Text: (§1) Two cell lines were used for screening of compounds for inhibiting HCV RNA replication (genoytype 1a and 1b). Genotype la replicon cells, are a Huh-7 derived cell line bearing the genotype 1a H77NS3-5B bicistronic subgenomic replicon. See, Blight, et al., J. Virol. (2003) 77(5): 3181-3190.
(§2) The genotype 1a replicon contains several adaptive mutations (NS4B Q31H, NS5A K68R, NS5A S232I), the luciferase gene and encodes for neomycin resistance. The genotype 1b replicon, also referred to as the ET replicon, is stably transfected with RNA transcripts harboring a I389luc-ubi-neo/NS3-3′/ET replicon with firefly luciferase-ubiquitin-neomycin phosphotransferase fusion protein and EMCV-IRES driven NS3-5B polyprotein containing the cell culture adaptive mutations (E1202G; T12801; K1846T) See, Kreiger, et al., Journal of Virology 75:4614-4624 (2001). Both cell lines were grown in DMEM, supplemented with 10% fetal calf serum, 2 mM Glutamine, Penicillin (100 IU/mL)/Streptomycin (100 μg/mL), 1×nonessential amino acids, and 250 μg/mL G418 (“Geneticin”). They were all available through Life Technologies (Bethesda, Md.). The cells were plated at 0.5×10^4 cells/well in 384 well plates containing compounds. The final concentration of compounds ranged between 0.1 nM to 50 μM and the final DMSO concentration of 0.5%.
(§3) Luciferase activity was measured 48 hours later by adding a Steady glo (Promega, Madison, Wis.). Percent inhibition of replication data was plotted relative to no compound control. Under the same condition, cytotoxicity of the compounds was determined using cell titer glo (Promega, Madison, Wis.). EC50 values were determined from a 10 point dose response curve using 2-4 fold serial dilutions for each compound, which spans a concentration range of at least a 1000 fold. Replicon EC50 values, the concentration of compound required to inhibit 50% of the assay response, were calculated by curve fitting data to the Hill equation, using a non-linear least-squares curve-fitting program. The software tested the data for quality and rejected compounds with high and low activity before fitting the equation below.
(§4) Analysis was performed using an XC50 module and BioAssay Enterprise (Cambridge Soft).

[2] = tested on: HCV genotype 1a H77 NS3-5B bicistronic subgenomic replicon; test: microbe, parasite or virus in culture; type: cell-based; details: Hepatitis C virus
Text: as §1, §2, §3, §4

[3] = Table 2, luciferase activity after 48 hours, read-out: HCV Genotype 1B Replicon EC50
[4] = Table 2, luciferase activity after 48 hours, read-out: HCV Genotype 1A Replicon EC50

| Structure (SMILES) | EC50 [1, 3] [nM] | EC50 [2, 4] [nM] | EC50 ([1]; 48 h, read-out: HCV Genotype 1B Replicon EC50 (nM)) [nM] | EC50 ([2]; 48 h, read-out: HCV Genotype 1A Replicon EC50 (nM)) [nM] |
| --- | --- | --- | --- | --- |
| CCCOc1ccc(-c2cc(C(C(=O)OC)n3cc4nc(-c5cccc(F)c5F)nc-4cn3)on2)c(C(F)(F)F)c1 (centres unmarked) [Compound 1, Methyl [2-(2,3-difluorophenyl)-5H-imidazo[4,5-d]pyridazin-5-yl]{3-[4-(propyloxy)-2-(trifluoromethyl)phenyl]-5-isoxazolyl}acetate] | 3 | 17 | – | – |
| CCCOc1ccc(-c2cc(C(C(=O)OCC)n3cc4nc(-c5cccc(F)c5F)nc-4cn3)on2)c(C(F)(F)F)c1 (centres unmarked) [Compound 2, Ethyl [2-(2,3-difluorophenyl)-5H-imidazo[4,5-d]pyridazin-5-yl]{3-[4-(propyloxy)-2-(trifluoromethyl)phenyl]-5-isoxazolyl}acetate] | 4 | 12 | – | – |
| CCCOC(=O)C(c1cc(-c2ccc(OCCC)cc2C(F)(F)F)no1)n1cc2nc(-c3cccc(F)c3F)nc-2cn1 (centres unmarked) [Compound 3, Propyl [2-(2,3-difluorophenyl)-5H-imidazo[4,5-d]pyridazin-5-yl]{3-[4-(propyloxy)-2-(trifluoromethyl)phenyl]-5-isoxazolyl}acetate] | 5 | 20 | – | – |
| CCCOc1ccc(-c2cc(C(C(=O)OC(C)C)n3cc4nc(-c5cccc(F)c5F)nc-4cn3)on2)c(C(F)(F)F)c1 (centres unmarked) [Compound 4, 1-Methylethyl [2-(2,3-difluorophenyl)-5H-imidazo[4,5-d]pyridazin-5-yl]{3-[4-(propyloxy)-2-(trifluoromethyl)phenyl]-5-isoxazolyl}acetate] | 10 | 30 | – | – |
| CCCOc1ccc(-c2cc(C(C(=O)OCCCO)n3cc4nc(-c5cccc(F)c5F)nc-4cn3)on2)c(C(F)(F)F)c1 (centres unmarked) [Compound 5, 3-Hydroxypropyl [2-(2,3-difluorophenyl)-5H-imidazo[4,5-d]pyridazin-5-yl]{3-[4-(propyloxy)-2-(trifluoromethyl)phenyl]-5-isoxazolyl}acetate] | 6 | 24 | – | – |
| CCCOc1ccc(-c2cc(C(C(=O)OC(C)(C)C)n3cc4nc(-c5cccc(F)c5F)nc-4cn3)on2)c(C(F)(F)F)c1 (centres unmarked) [Compound 6, 1,1-Dimethylethyl [2-(2,3-difluorophenyl)-5H-imidazo[4,5-d]pyridazin-5-yl]{3-[4-(propyloxy)-2-(trifluoromethyl)phenyl]-5-isoxazolyl}acetate] | 16 | 65 | – | – |
| CCCCOC(=O)C(c1cc(-c2ccc(OCCC)cc2C(F)(F)F)no1)n1cc2nc(-c3cccc(F)c3F)nc-2cn1 (centres unmarked) [Compound 7, Butyl [2-(2,3-difluorophenyl)-5H-imidazo[4,5-d]pyridazin-5-yl]{3-[4-(propyloxy)-2-(trifluoromethyl)phenyl]-5-isoxazolyl}acetate] | 5 | 11 | – | – |
| CCCOc1ccc(-c2cc(C(C(=O)OCCOCCO)n3cc4nc(-c5cccc(F)c5F)nc-4cn3)on2)c(C(F)(F)F)c1 (centres unmarked) [Compound 8, 2-[(2-Hydroxyethyl)oxy]ethyl [2-(2,3-difluorophenyl)-5H-imidazo[4,5-d]pyridazin-5-yl]{3-[4-(propyloxy)-2-(trifluoromethyl)phenyl]-5-isoxazolyl}acetate] | 3 | 7 | – | – |
| CCCOc1ccc(-c2cc(C(C(=O)OCCOCCOC)n3cc4nc(-c5cccc(F)c5F)nc-4cn3)on2)c(C(F)(F)F)c1 (centres unmarked) [Compound 9, 2-{[2-(Methyloxy)ethyl]oxy}ethyl [2-(2,3-difluorophenyl)-5H-imidazo[4,5-d]pyridazin-5-yl]{3-[4-(propyloxy)-2-(trifluoromethyl)phenyl]-5-isoxazolyl}acetate] | 4 | 2 | – | – |
| CCCOc1ccc(-c2cc(C(C(=O)OCCOCCOCCO)n3cc4nc(-c5cccc(F)c5F)nc-4cn3)on2)c(C(F)(F)F)c1 (centres unmarked) [Compound 11, 2-({2-[(2-Hydroxyethyl)oxy]ethyl}oxy)ethyl [2-(2,3-difluorophenyl)-5H-imidazo[4,5-d]pyridazin-5-yl]{3-[4-(propyloxy)-2-(trifluoromethyl)phenyl]-5-isoxazolyl}acetate] | 3 | 21 | – | – |
| CCCOc1ccc(-c2cc(C(C(=O)OCCOCCOCCOCCO)n3cc4nc(-c5cccc(F)c5F)nc-4cn3)on2)c(C(F)(F)F)c1 (centres unmarked) [Compound 12, 2-{[2-({2-[(2-Hydroxyethyl)oxy]ethyl}oxy)ethyl]oxy}ethyl [2-(2,3-difluorophenyl)-5H-imidazo[4,5-d]pyridazin-5-yl]{3-[4-(propyloxy)-2-(trifluoromethyl)phenyl]-5-isoxazolyl}acetate] | 1 | 17 | – | – |
| CCCOc1ccc(-c2cc(C(C(=O)OCCCOP(=O)(O)O)n3cc4nc(-c5cccc(F)c5F)nc-4cn3)on2)c(C(F)(F)F)c1 (centres unmarked) [Compound 14, 3-(Phosphonooxy)propyl [2-(2,3-difluorophenyl)-5H-imidazo[4,5-d]pyridazin-5-yl]{3-[4-(propyloxy)-2-(trifluoromethyl)phenyl]-5-isoxazolyl}acetate mono sodium salt] | – | – | 3 | 42 |
| CCCOc1ccc(-c2cc(C(C(=O)OCCCOS(=O)(=O)O)n3cc4nc(-c5cccc(F)c5F)nc-4cn3)on2)c(C(F)(F)F)c1 (centres unmarked) [Compound 15, 3-(Sulfooxy)propyl [2-(2,3-difluorophenyl)-5H-imidazo[4,5-d]pyridazin-5-yl]{3-[4-(propyloxy)-2-(trifluoromethyl)phenyl]-5-isoxazolyl}acetate sodium salt] | 2 | 14 | – | – |
| CCCOc1ccc(-c2cc(C(C(=O)OCCC(=O)O)n3cc4nc(-c5cccc(F)c5F)nc-4cn3)on2)c(C(F)(F)F)c1 (centres unmarked) [Compound 16, 3-[([2-(2,3-Difluorophenyl)-5H-imidazo[4,5-d]pyridazin-5-yl]{3-[4-(propyloxy)-2-(trifluoromethyl)phenyl]-5-isoxazolyl}acetyl)oxy]propanoic acid sodium salt] | 3 | 32 | – | – |
| CCCOc1ccc(-c2cc(C(C(=O)NC)n3cc4nc(-c5cccc(F)c5F)nc-4cn3)on2)c(C(F)(F)F)c1 (centres unmarked) [Compound 20, 2-[2-(2,3-Difluorophenyl)-5H-imidazo[4,5-d]pyridazin-5-yl]-N-methyl-2-{3-[4-(propyloxy)-2-(trifluoromethyl)phenyl]-5-isoxazolyl}acetamide] | 65 | 920 | – | – |
| CCCOc1ccc(-c2ccc(C(C(=O)OC)n3cc4nc(-c5cccc(F)c5F)nc-4cn3)cn2)c(C(F)(F)F)c1 (centres unmarked) [Compound 39, Methyl [2-(2,3-difluorophenyl)-5H-imidazo[4,5-d]pyridazin-5-yl]{6-[4-(propyloxy)-2-(trifluoromethyl)phenyl]-3-pyridinyl}acetate] | 800 | 9440 | – | – |
| CCCOc1ccc(-c2ccc(C(C(=O)OCC)n3cc4nc(-c5cccc(F)c5F)nc-4cn3)cn2)c(C(F)(F)F)c1 (centres unmarked) [Compound 40, Ethyl [2-(2,3-difluorophenyl)-5H-imidazo[4,5-d]pyridazin-5-yl]{6-[4-(propyloxy)-2-(trifluoromethyl)phenyl]-3-pyridinyl}acetate] | 440 | – | – | – |
| CCCOC(=O)C(c1ccc(-c2ccc(OCCC)cc2C(F)(F)F)nc1)n1cc2nc(-c3cccc(F)c3F)nc-2cn1 (centres unmarked) [Compound 41, Propyl [2-(2,3-difluorophenyl)-5H-imidazo[4,5-d]pyridazin-5-yl]{6-[4-(propyloxy)-2-(trifluoromethyl)phenyl]-3-pyridinyl}acetate] | 2700 | 900 | – | – |
| CCCOc1ccc(-c2ccc(C(C(=O)OC(C)C)n3cc4nc(-c5cccc(F)c5F)nc-4cn3)cn2)c(C(F)(F)F)c1 (centres unmarked) [Compound 42, 1-Methylethyl [2-(2,3-difluorophenyl)-5H-imidazo[4,5-d]pyridazin-5-yl]{6-[4-(propyloxy)-2-(trifluoromethyl)phenyl]-3-pyridinyl}acetate] | 510 | 980 | – | – |
| CCCOc1ccc(-c2ncc(C(C(=O)OC)n3cc4nc(-c5cccc(F)c5F)nc-4cn3)cn2)c(C(F)(F)F)c1 (centres unmarked) [Compound 58, Methyl [2-(2,3-difluorophenyl)-5H-imidazo[4,5-d]pyridazin-5-yl]{2-[4-(propyloxy)-2-(trifluoromethyl)phenyl]-5-pyrimidinyl}acetate] | 270 | 2600 | – | – |
| CCCOc1ccc(-c2cc(C(C(=O)OCCCCN(C)C)n3cc4nc(-c5cccc(F)c5F)nc-4cn3)on2)c(C(F)(F)F)c1 (centres unmarked) [Compound 173, 4-(Dimethylamino)butyl [2-(2,3-difluorophenyl)-5H-imidazo[4,5-d]pyridazin-5-yl]{3-[4-(propyloxy)-2-(trifluoromethyl)phenyl]-5-isoxazolyl}acetate dihydrochloride] | 3 | 20 | – | – |
